This assay concerns hind leg scratching behaviour induced in rats by the administration of a known pruritogenic agent. The settings on record: rats challenged s.c. with 5-methoxytryptamine hydrochloride (4 mg/3 mL/kg); test compound by subcutaneous injection in aqueous micelle formulation; scratching score totalled after 25 minutes vs control group.

The record followed here is patent US6518282B1, “4-Arylpiperidine derivatives for the treatment of pruritus” (Pfizer Inc., priority 1999, dated 2003).

Method: The compounds of the invention are evaluated for their activity as antipruritic agents by measuring their ability to inhibit the hind leg scratching behaviour induced in rats by the administration of a known pruritogenic agent. […] The test is performed as follows:
Male Wistar rats (approximately 150 g body weight) are challenged with a pruritogen by subcutaneous injection of 5-methoxytryptamine hydrochloride (4 mg/3 mL/kg) dissolved in physiological saline into the scruff of the neck. At this dose a constant and quantifiable hindleg scratching response lasting up to 90 minutes is obtained.
The test compound is administered to the test animals by subcutaneous injection in an aqueous micelle formulation. The test compound is prepared in the following manner. […] The compounds can be administered pre- or post-challenge or may be administered at the same time as the pruritogenic challenge.
After the pruritogen challenge has been administered, hindleg scratching is scored for each animal by recording the presence or absence of scratching during each 30 second interval as 1 or 0 scored respectively. The score for each animal is totalled after 25 minutes (maximum score 50).

Turning to `CCOCCN1CC[C@@](C)(c2cccc(O)c2)[C@H](C)C1` (racemic) [Example 5], the anti-pruritic activity result is reported as “display anti-pruritic activity”.
